The text below walks through data of PubChem BioAssay (NCI).

Among the test systems are SF-539 CNS; HOP-62 NSCLC; NCI-H460 lung; CAKI-1 renal; HCT-15 colon; SF-295 CNS; M19-MEL melanoma; NCI/ADR-RES ovarian; SK-MEL-5 melanoma; ACHN renal.
Assay in all cases: NCI-60 cell line screen, 48 h

Structures are written as SMILES.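 48-hour exposure; five concentrations; linearly interpolated endpoints. At the GI50, growth is halved. Definition used: TGI = concentration required for complete inhibition of growth.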

Take `Cc1cc([NH-])c([NH-])cc1C.[Cl][Pt+2][Cl]`: the GI50 in the assay with SF-539 CNS was 8.5 µM; with HOP-62 NSCLC it was greater than 42.8 µM; in the assay on NCI-H460 lung it was 4.97 µM; in the assay with CAKI-1 renal it was 12 µM; in the assay on HCT-15 colon it was 10.9 µM; in the assay with SF-295 CNS it was 3.36 µM. Further, the GI50 is 8.79 µM with M19-MEL melanoma, 16.3 µM in the assay with NCI/ADR-RES ovarian and 9.48 µM in the assay on SK-MEL-5 melanoma. The TGI is greater than 31.6 µM with SF-539 CNS; greater than 77 µM with HOP-62 NSCLC; greater than 43.8 µM in the assay on NCI-H460 lung; 27.6 µM in the assay on CAKI-1 renal; 32.3 µM in the assay on HCT-15 colon; 16.1 µM in the assay on SF-295 CNS. Further, the TGI worked out at 31.2 µM in the assay with M19-MEL melanoma, 42.7 µM with NCI/ADR-RES ovarian and 25.3 µM in the assay with SK-MEL-5 melanoma.
Take `Cc1ccc(C)c(NC(=O)C(=O)C(C(=O)c2ccc3ccccc3c2)C2OC(=O)c3ccccc32)c1` (configuration not stated): the TGI in the assay with SF-539 CNS turned out to be 17.4 µM; with HOP-62 NSCLC, 62.1 µM; in the assay on NCI-H460 lung, 27.7 µM; in the assay with CAKI-1 renal it was 52.6 µM; with HCT-15 colon, 44.8 µM; in the assay with ACHN renal it was 87.1 µM. Besides, the figures for the TGI in the assay on SF-295 CNS, in the assay on M19-MEL melanoma and in the assay on SK-MEL-5 melanoma were 66.2 µM, 30.5 µM and 31.5 µM, respectively.
For `CCOC(=O)C(C#N)(Cc1c[nH]c2ccccc12)NC(C)=O` (configuration not stated), the TGI in the assay on HOP-62 NSCLC, in the assay with NCI-H460 lung, in the assay on CAKI-1 renal, with HCT-15 colon, with ACHN renal and in the assay with SF-295 CNS was greater than 100 µM throughout. Moreover, the TGI in the assay on M19-MEL melanoma and in the assay with SK-MEL-5 melanoma was greater than 100 µM throughout.
Consider `c1ccc(-c2csc3c4ccccc4c4ccccc4[n+]23)cc1`, for which the TGI in the assay on SF-539 CNS is 14.8 µM; in the assay with HOP-62 NSCLC, 20.7 µM; in the assay with NCI-H460 lung, 10.2 µM; with CAKI-1 renal, greater than 36 µM; with HCT-15 colon, greater than 78.7 µM; in the assay with ACHN renal it was 30.6 µM. In addition, the TGI in the assay with SF-295 CNS came out at 16 µM; with M19-MEL melanoma, 4.22 µM; with SK-MEL-5 melanoma, 2.86 µM.
With `COC(=O)[C@H]1C=NN[C@@H]1C(=O)N1[C@H]2CC3CC[C@@]2(CS1(=O)=O)C3(C)C`, the TGI in the assay with SF-539 CNS, with HOP-62 NSCLC, with NCI-H460 lung, in the assay on CAKI-1 renal, with HCT-15 colon and in the assay on ACHN renal was greater than 100 µM in each case. For the same compound, the TGI with SF-295 CNS, with NCI/ADR-RES ovarian and in the assay on SK-MEL-5 melanoma was greater than 100 µM in each case.
For `COC(=O)C1(NC(=O)C(CC(=O)OCc2ccccc2)NC(=O)OCc2ccccc2)CCCCCC1` (configuration not stated), the TGI with SF-539 CNS is 49.2 µM; with HOP-62 NSCLC it was 67.5 µM; with NCI-H460 lung, greater than 100 µM; in the assay on CAKI-1 renal, 48.5 µM; with HCT-15 colon it was greater than 100 µM; with ACHN renal, greater than 100 µM. The TGI in the assay on SF-295 CNS was greater than 100 µM; in the assay on NCI/ADR-RES ovarian, 82.5 µM; in the assay on SK-MEL-5 melanoma, 28.8 µM.
As to `CC(C)(C)c1ccccc1N1C(=O)c2ccc3c4c(ccc(c24)C1=O)N(c1ccccc1C(C)(C)C)C3=O`, the TGI with SF-539 CNS, in the assay on HOP-62 NSCLC, with NCI-H460 lung, with CAKI-1 renal, in the assay with HCT-15 colon and with ACHN renal was greater than 100 µM each time. The TGI with SF-295 CNS, in the assay with NCI/ADR-RES ovarian and in the assay with SK-MEL-5 melanoma was greater than 100 µM throughout.
As to `C[C@@]1(O)C2CC3CC1(c1ccccc1)CC(/C3=N/O)/C2=N\O` (some centres not stated), the TGI in the assay with SF-539 CNS, in the assay on HOP-62 NSCLC, in the assay with NCI-H460 lung, in the assay with CAKI-1 renal, in the assay with HCT-15 colon and with ACHN renal was greater than 100 µM each time. In addition, the TGI in the assay with SF-295 CNS, in the assay on NCI/ADR-RES ovarian and with SK-MEL-5 melanoma was greater than 100 µM throughout.
Turning to `Cc1c(/C=N/NC(=O)c2ccccc2O)c(=O)n(-c2ccccc2)n1C`, the TGI with SF-539 CNS, in the assay with HOP-62 NSCLC, with NCI-H460 lung, in the assay with HCT-15 colon, with ACHN renal and in the assay on SF-295 CNS was greater than 100 µM throughout. In the assay on M19-MEL melanoma, this compound gave a TGI greater than 100 µM.
Turning to `COC(=O)Cc1cc(O)c2c(c1O)C(=O)c1ccccc1C2=O`, the TGI was greater than 100 µM with SF-539 CNS; 63.3 µM with HOP-62 NSCLC; greater than 100 µM in the assay with NCI-H460 lung; greater than 100 µM in the assay on CAKI-1 renal; greater than 100 µM in the assay on HCT-15 colon; greater than 77.9 µM in the assay with ACHN renal. Further, the TGI is greater than 72.4 µM in the assay with SF-295 CNS, greater than 100 µM with M19-MEL melanoma, greater than 100 µM in the assay on NCI/ADR-RES ovarian and greater than 100 µM in the assay on SK-MEL-5 melanoma.
For the compound `N#CN1C2CCC1CC(=O)C2`, the TGI with SF-539 CNS, with HOP-62 NSCLC, with NCI-H460 lung, with CAKI-1 renal, with HCT-15 colon and in the assay on ACHN renal was greater than 100 µM each time. In addition, the TGI with SF-295 CNS, with NCI/ADR-RES ovarian and with SK-MEL-5 melanoma was greater than 100 µM each time.
On to `COc1ccc2c(c1)C(=O)CC1c3cnccc3C(=O)N21` (configuration not stated), for which the TGI with SF-539 CNS, in the assay with HOP-62 NSCLC, in the assay with NCI-H460 lung, in the assay on CAKI-1 renal, in the assay on HCT-15 colon and with ACHN renal was greater than 100 µM in each case. Moreover, the TGI with SF-295 CNS, with NCI/ADR-RES ovarian and in the assay with SK-MEL-5 melanoma was greater than 100 µM throughout.
In the case of `CC(C)=CCN1c2ccccc2NC(=O)CC1C` (configuration not stated), the TGI with SF-539 CNS, in the assay on HOP-62 NSCLC, in the assay on NCI-H460 lung, in the assay on CAKI-1 renal, with HCT-15 colon and in the assay on ACHN renal was greater than 100 µM throughout. The TGI with SF-295 CNS is greater than 100 µM; in the assay on NCI/ADR-RES ovarian, greater than 100 µM; in the assay with SK-MEL-5 melanoma it was 85 µM.
`CCCCCOc1ccc(C=Nc2ccc(CCc3ccc(N=Cc4ccc(OCCCCC)cc4)cc3)cc2)cc1`: the TGI in the assay with SF-539 CNS, in the assay with HOP-62 NSCLC, in the assay on NCI-H460 lung, in the assay with HCT-15 colon, with SF-295 CNS and in the assay with M19-MEL melanoma was greater than 100 µM each time. Moreover, the TGI in the assay with NCI/ADR-RES ovarian and with SK-MEL-5 melanoma was greater than 100 µM each time.
